Measured values as given in ChEMBL document CHEMBL4017474, “A calcineurin antifungal strategy with analogs of FK506” (Bioorg Med Chem Lett, 2017).
Values after ≈ are worked out from the molar mass of the structure shown. Active and inactive are the calls of the source. No cut-off for these calls is given here.

Experiments:
[1] = molecular target: T1, Peptidyl-prolyl cis-trans isomerase FKBP1A (Homo sapiens, UniProt P62942); assay: Antagonist activity at human FKBP12 measured after 30 mins by fluorescein labelled SLF tracer based fluorescence polarization assay
T1 sequence (P62942 whole entry): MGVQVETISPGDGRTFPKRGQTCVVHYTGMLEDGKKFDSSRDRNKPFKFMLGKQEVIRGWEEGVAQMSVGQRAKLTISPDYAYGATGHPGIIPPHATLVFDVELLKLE

[2] = molecular target: T1, Peptidyl-prolyl cis-trans isomerase FKBP1A; assay: (§1) Antagonist activity at recombinant human N-terminal His6-tagged FKBP12 expressed in Escherichia coli assessed as inhibition of FKBP12 binding to calcineurin at 5 uL using […] pretreated for 1 hr followed by substrate addition measured after 1 hr by biomol green dye based spectrophotometric method
[3] = system: Jurkat; assay: Immunosuppressive activity in PMA/ionomycin stimulated human Jurkat T cells assessed as suppression of IL2 production pretreated for 15 to 30 mins followed by PMA/ionomycin addition measured after 18 to 20 hrs by ELISA; type: cell-based
[4] = system: PBMC; assay: Reversal of FK506-induced inhibition of cell proliferation in concanavalin A stimulated human PBMC at 1 uM measured after 72 hrs by CellTiter-Glo assay relative to control; type: functional; parameters: scale not given: the % may be the effect or the level left
[5] = system: PBMC; assay: Antiproliferative activity against concanavalin A stimulated human PBMC at 1 to 2 ug/ml measured after 72 hrs by CellTiter-Glo assay; type: cell-based
[6] = system: Aspergillus fumigatus; assay: Antifungal activity against Aspergillus fumigatus assessed as spore germination at 12.5 ug/ml measured after 48 hrs in presence of FK506 by broth dilution method relative to control; type: functional
[7] = system: Aspergillus fumigatus; assay: Antifungal activity against Aspergillus fumigatus up to 25 ug/ml measured after 48 hrs by broth dilution method; type: functional
[8] = system: HepG2; assay: Cytotoxicity against human HepG2 cells; type: cell-based
[9] = system: Vero 76; assay: Cytotoxicity against African green monkey Vero 76 cells; type: cell-based; details: Chlorocebus sabaeus
[10] = Clearance in mouse at 3 mg/kg, iv; type: ADME, organism-based; details: in vivo
[11] = Volume of distribution at steady state in mouse at 3 mg/kg, iv; type: ADME, organism-based; details: in vivo, read-out: Vdss
[12] = Terminal half-life in mouse at 3 mg/kg, iv; type: ADME, organism-based; details: in vivo, read-out: beta t1/2 (converted)
[13] = AUClast in mouse at 3 mg/kg, iv; type: ADME, organism-based; parameters: dose 3 mg/kg, time 0 - last, route intravenous; details: in vivo
[14] = Tmax in mouse at 10 mg/kg, po; type: ADME, organism-based; details: in vivo
[15] = Cmax in mouse at 10 mg/kg, po; type: ADME, organism-based; parameters: dose 10 mg/kg, route oral; details: in vivo
[16] = AUClast in mouse at 10 mg/kg, po; type: ADME, organism-based; parameters: dose 10 mg/kg, time 0 - last, route oral; details: in vivo
[17] = system: Aspergillus fumigatus; assay: Permeability across Aspergillus fumigatus at 12.5 ug/ml relative to human PBMC; type: ADME
[18] = system: PBMC; assay: Permeability across human PBMC at 1 uM; type: ADME, cell-based
[19] = Antagonist activity at Aspergillus fumigatus FKBP12 measured after 30 mins by fluorescein labelled SLF tracer based fluorescence polarization assay
[20] = system: Cryptococcus neoformans; assay: Antifungal activity against Cryptococcus neoformans by broth macrodilution method; type: functional
[21] = system: Aspergillus fumigatus; assay: Antifungal activity against Aspergillus fumigatus by broth macrodilution method; type: functional
[22] = molecular target: T1, Peptidyl-prolyl cis-trans isomerase FKBP1A; assay: as §1, with “of FK506 mediated” for “of”, “calcineurin” for “calcineurin at 5 uL”

In the case of `CO[C@H]1C[C@@H](C)C/C(C)=C/[C@@H](CC(=O)N2CCCC2)C(=O)C[C@H](O)[C@@H](C)[C@@H](/C(C)=C/[C@@H]2CC[C@@H](OC(=O)N3CC(O)C3)[C@H](OC)C2)OC(=O)[C@@H]2CCCCN2C(=O)C(=O)[C@]2(O)O[C@H]1[C@@H](OC)C[C@H]2C`, the IC50 [1] is reported as 22.6 nM, the inhibition [2] is reported as “inactive” and the IC50 [3] is reported as > 10 µM. The Activity [4] was 63%, the Activity [5] was “Non-Toxic” and the Activity [6] was 22%. For the same molecule, the Activity [7] was “inactive”, the IC50 [8] was > 100 µM and the IC50 [9] was > 100 µM. The clearance [10] was 16.1 mL/min/kg, the Vd [11] was 1.35 L/kg and the half-life [12] was 81.6 min. For the same molecule, the AUC(0-t) [13] was 2780 ng·h/mL, the Tmax [14] was 30 min and the Cmax [15] was 814 ng/mL. It also gave an AUC(0-t) [16] of 1860 ng·h/mL and a permeability [17] of 75%.

For `CO[C@H]1C[C@@H](C)C/C(C)=C/[C@@H](CCCSCCO)C(=O)C[C@H](O)[C@@H](C)[C@@H](/C(C)=C/[C@@H]2CC[C@@H](O)[C@H](OC)C2)OC(=O)[C@@H]2CCCCN2C(=O)C(=O)[C@]2(O)O[C@H]1[C@@H](OC)C[C@H]2C`, the IC50 [1] was 27 nM, the inhibition [2] was “inactive” and the IC50 [3] was > 10 µM. The Activity [4] was 96.5%, the Activity [5] was “Non-Toxic” and the Activity [6] was 37.5%. The Activity [7] was “inactive”, the IC50 [8] was > 100 µM and the IC50 [9] was > 100 µM. It also gave a clearance [10] of 22.8 mL/min/kg, a Vd [11] of 1.17 L/kg and a half-life [12] of 47.6 min. For the same molecule, the AUC(0-t) [13] was 2110 ng·h/mL, the Tmax [14] was 30 min and the Cmax [15] was 1640 ng/mL. For the same molecule, the AUC(0-t) [16] was 2710 ng·h/mL and the permeability [18] was 100%.

For `CO[C@H]1C[C@@H](C)C/C(C)=C/[C@@H](CCCC(=O)N2CCC(CO)CC2)C(=O)C[C@H](O)[C@@H](C)[C@@H](/C(C)=C/[C@@H]2CC[C@@H](OCCO)[C@H](OC)C2)OC(=O)[C@@H]2CCCCN2C(=O)C(=O)[C@]2(O)O[C@H]1[C@@H](OC)C[C@H]2C`, the IC50 [1] was 23.6 nM, the inhibition [2] was “inactive” and the IC50 [3] was > 10 µM. For the same molecule, the Activity [4] was 81.7%, the Activity [5] was “Non-Toxic” and the Activity [6] was 24%. For the same molecule, the Activity [7] was “inactive”, the IC50 [8] was > 100 µM and the IC50 [9] was > 100 µM. The permeability [17] was 75%.

In the case of `C=CC[C@@H]1/C=C(\C)C[C@H](C)C[C@H](OC)[C@H]2O[C@@](O)(C(=O)C(=O)N3CCCC[C@H]3C(=O)O[C@H](/C(C)=C/[C@@H]3CC[C@@H](O)[C@H](OC)C3)[C@H](C)[C@@H](O)CC1=O)[C@H](C)C[C@@H]2OC` [TACROLIMUS ANHYDROUS], the IC50 [19] is reported as 18.4 nM, the inhibition [2] is reported as “inactive” and the IC50 [3] is reported as 0.36 µM. The IC50 [8] was > 100 µM, the IC50 [9] was > 100 µM and the clearance [10] was 29.5 mL/min/kg. The Vd [11] was 1.8 L/kg, the half-life [12] was 57.1 min and the AUC(0-t) [13] was 1620 ng·h/mL. The MIC [20] was 0.01 µg/mL (≈ 0.0124 µM) and the MIC [21] was 0.025 µg/mL (≈ 0.0311 µM).

In the case of `CO[C@H]1C[C@@H](C)C/C(C)=C/[C@@H](CC(=O)N2CCN(C)CC2)C(=O)C[C@H](O)[C@@H](C)[C@@H](/C(C)=C/[C@@H]2CC[C@@H](O)[C@H](OC)C2)OC(=O)[C@@H]2CCCCN2C(=O)C(=O)[C@]2(O)O[C@H]1[C@@H](OC)C[C@H]2C`, the IC50 [1] is reported as 12.6 nM, the IC50 [19] is reported as 16.8 nM and the inhibition [2] is reported as “inactive”. For the same molecule, the IC50 [22] was 1100 nM, the IC50 [3] was > 10 µM and the Activity [4] was 102.8%. For the same molecule, the Activity [5] was “Non-Toxic”, the Activity [6] was 43.1% and the Activity [7] was “inactive”. For the same molecule, the IC50 [8] was > 100 µM, the IC50 [9] was > 100 µM and the permeability [18] was 100%.
